Test results from patent US20260097126A1, “PHARMACEUTICAL FORMULATIONS AND METHODS FOR THE TREATMENT OF METABOLIC AND LIVER DISORDERS” (priority 2022, published 2026).

Columns and labels:
GLP-1 receptor [1] = target: T1, GLP-1 receptor (Homo sapiens, UniProt P43220); test: TagLite binding assay, GLP-1 receptor
GIP receptor [2] = target: T2, GIP receptor (Homo sapiens, UniProt P48546); test: TagLite binding assay, GIP receptor
T2 sequence (P48546 22-466): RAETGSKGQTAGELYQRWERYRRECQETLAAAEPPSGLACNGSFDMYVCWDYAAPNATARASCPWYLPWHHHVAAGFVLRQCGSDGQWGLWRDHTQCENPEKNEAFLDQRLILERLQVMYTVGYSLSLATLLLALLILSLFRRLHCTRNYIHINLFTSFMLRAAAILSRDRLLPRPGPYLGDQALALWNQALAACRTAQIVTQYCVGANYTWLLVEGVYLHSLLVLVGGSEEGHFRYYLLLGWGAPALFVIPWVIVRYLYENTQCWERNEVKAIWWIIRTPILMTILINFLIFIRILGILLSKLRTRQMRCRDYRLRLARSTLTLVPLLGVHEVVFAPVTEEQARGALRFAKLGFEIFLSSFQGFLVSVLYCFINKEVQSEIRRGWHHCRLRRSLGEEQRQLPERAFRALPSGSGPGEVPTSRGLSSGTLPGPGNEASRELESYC

[3] = system: mice fed a Gubra amylin NASH (GAN) diet; test: Biological effects in GAN diet-induced NASH mice; type: in vivo; conditions: after two weeks
Experimental: NASH was induced in mice by feeding mice a Gubra amylin NASH (GAN) diet as described in Boland et al. World J Gastroenterol. 2019, 25(33): 4904-4920. One week prior to administration of a first dose of compounds, the mice were weighed and randomized, and their food intake was measured. Mice were randomly assigned to dosing groups, with twelve mice per group. […] Compound dose titration (nmol/kg): 0.6 (day 0), 1.2 (day 1), 2.4 (day 2), 4.8 (day 3), 4.8 (day 4), 12 (day 5), 30.0 (from day 6).
After two weeks, animals were sacrificed. Plasma enzymes (P-ALT (alanine aminotransferase) and P-AST (aspartate aminotransferase)), total plasma triglycerides, and total plasma cholesterol were measured, and terminal necropsy of each liver was carried out, determining relative liver weight as a percentage of body weight, assaying total liver biochemistry including total liver triglycerides, plasma insulin and total liver cholesterol, as well as histological evaluation of Galectin-3, and alpha-smooth muscle actin.

GLP-1 receptor [4] = target: T1, GLP-1 receptor; test: HSA modulated binding assay, GLP-1 receptor
GIP receptor [5] = target: T2, GIP receptor; test: HSA modulated binding assay, GIP receptor
[6] = Pharmacokinetic study of Compounds 4, 14, 15, 17 in monkeys; conditions: cynomolgus monkey, in vivo, sc, 0.2 mg/kg
Experimental: The formulations were administered to cynomolgus monkeys at a dose of 0.2 mg/kg. Plasma concentration versus time data was collected and pharmacokinetic values determined.

[7] = Stability study of Compound 4 formulations; type: physicochemical
[8] = liver Galectin-3, histological quantitative assessment
[9] = liver alpha-smooth muscle actin, histological quantitative assessment
[10] = binding with 2% HSA to binding with 0% HSA
[11] = GMP formulation, 2.5 mg/ml Compound 4, 0.94% propylene glycol, 0.36% phenol, 0.074% dibasic sodium phosphate, 0.005% polysorbate 80, initial
[12] = same formulation stored for one month at 25° C./60% R.H.

T1 sequence (P43220 24-463): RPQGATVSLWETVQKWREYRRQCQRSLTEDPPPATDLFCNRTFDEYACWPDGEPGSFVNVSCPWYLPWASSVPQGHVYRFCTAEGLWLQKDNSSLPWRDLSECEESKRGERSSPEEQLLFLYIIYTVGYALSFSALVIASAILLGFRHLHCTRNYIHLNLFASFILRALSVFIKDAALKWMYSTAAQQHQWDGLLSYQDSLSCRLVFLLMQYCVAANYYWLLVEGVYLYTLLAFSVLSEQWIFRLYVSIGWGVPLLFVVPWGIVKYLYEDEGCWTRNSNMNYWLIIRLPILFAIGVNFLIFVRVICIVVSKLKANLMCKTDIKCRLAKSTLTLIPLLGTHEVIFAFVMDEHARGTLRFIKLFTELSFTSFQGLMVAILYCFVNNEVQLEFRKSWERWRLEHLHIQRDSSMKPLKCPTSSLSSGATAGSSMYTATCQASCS

CC[C@H](C)[C@H](NC(=O)[C@H](CC(C)C)NC(=O)[C@H](Cc1c[nH]c2ccccc12)NC(=O)[C@H](CCC(N)=O)NC(=O)[C@@H](NC(=O)[C@H](Cc1ccccc1)NC(=O)[C@H](C)NC(=O)[C@H](CCCCNC(=O)COCCOCCNC(=O)COCCOCCNC(=O)CC[C@H](NC(=O)CCCCCCCCCCCCCCCCCCP(=O)(O)O)C(=O)O)NC(=O)[C@H](CCC(N)=O)NC(=O)[C@H](C)NC(=O)[C@@H](NC(=O)[C@H](CCCCN)NC(=O)[C@H](CC(=O)O)NC(=O)[C@H](CC(C)C)NC(=O)C(C)(C)NC(=O)[C@@H](NC(=O)[C@H](CO)NC(=O)[C@H](Cc1ccc(O)cc1)NC(=O)[C@H](CC(=O)O)NC(=O)[C@H](CO)NC(=O)[C@@H](NC(=O)[C@H](Cc1ccccc1)NC(=O)[C@@H](NC(=O)CNC(=O)[C@H](CCC(=O)O)NC(=O)C(C)(C)NC(=O)[C@@H](N)Cc1ccc(O)cc1)[C@@H](C)O)[C@@H](C)O)[C@@H](C)CC)[C@@H](C)CC)C(C)C)C(=O)N[C@@H](C)C(=O)NCC(=O)NCC(=O)N1CCC[C@H]1C(=O)N[C@@H](CO)C(=O)N[C@@H](CO)C(=O)NCC(=O)N[C@@H](C)C(=O)N1CCC[C@H]1C(=O)N1CCC[C@H]1C(=O)N1CCC[C@H]1C(=O)N[C@@H](CO)C(N)=O [Compound 4]
IC50 (GLP-1 receptor [1]; read-out: GLP-1 receptor IC 50): 105 nM | IC50 (GIP receptor [2]; read-out: GIP receptor IC 50): 153 nM | liver Galectin-3 compared to tirzepatide or vehicle (in words) [3]: lower relative and total liver Galectin-3 as compared to administration of tirzepatide or vehicle alone | liver alpha-smooth muscle actin compared to tirzepatide (in words) [3]: lower relative and total liver alpha-smooth muscle actin as compared to administration of tirzepatide | liver triglycerides compared to tirzepatide or vehicle (in words) [3]: lower relative and total liver triglycerides as compared to administration of tirzepatide or vehicle alone | Gal-3 Relative [3, 8]: 6.3 ± 0.3 percent fractional area | Gal-3 Total [3, 8]: 137 ± 15 mg | α-SMA Relative [3, 9]: 4.8 ± 0.6 percent fractional area | α-SMA Total [3, 9]: 102 ± 10 mg | TG Relative ([3]; liver triglycerides): 37 ± 3 mg per/g liver | TG Total ([3]; liver triglycerides): 70 ± 5 mg per/liver | IC50 (GLP-1 receptor [4]; 0% human serum albumin, read-out: GLP-1 receptor IC 50, 0% HSA): 154 nM | GLP-1 receptor Ratio of HSA/No HSA (GLP-1 receptor [4]; [10]): 6.42 | IC50 (GLP-1 receptor [4]; read-out: GLP-1 receptor IC 50, 2% HSA, 2% human serum albumin): 988 nM | IC50 (GIP receptor [5]; 0% human serum albumin, read-out: GIP receptor IC 50, 0% HSA): 264 nM | GIP receptor Ratio of HSA/No HSA (GIP receptor [5]; [10]): 1.25 | IC50 (GIP receptor [5]; read-out: GIP receptor IC 50, 2% HSA, 2% human serum albumin): 331 nM | AUC(0-inf) [6]: 321 µg·h/mL | AUC(0-t) [6]: 309 µg·h/mL | CL/F [6]: 15.2 mL/day/kg | Cmax [6]: 1890 ng/mL | Tmax [6]: 20 h | Vd/F [6]: 0.095 L/kg | half-life [6]: 105 h | Compound 4 assay, before storage [7, 11]: 103% | total impurities, before storage [7, 11]: 0.57% | Compound 4 assay, after storage [7, 12]: 102.4% | total impurities, after storage [7, 12]: 0.76%

tirzepatide [reference compound]
GLP-1 receptor % Binding avg at CMax (GLP-1 receptor [1]): 0.20% | GIP receptor % Binding avg at CMax (GIP receptor [2]): −1.21% | Gal-3 Total [3, 8]: 138 ± 17 mg | α-SMA Total [3, 9]: 108 ± 22 mg | TG Total ([3]; liver triglycerides): 80 ± 11 mg per/liver | GLP-1 receptor % Binding avg at CMax, 0% HSA (GLP-1 receptor [4]; 0% human serum albumin): −0.14% | GLP-1 receptor % Binding avg at CMax, 2% HSA (GLP-1 receptor [4]; 2% human serum albumin): 33.01% | binding affinity for albumin (in words) (GLP-1 receptor [4]; inferred from the HSA ratios at GLP-1 and GIP receptors): greater than that of Compound 4 or of Compound 12 | GIP receptor % Binding avg at CMax, 0% HSA (GIP receptor [5]; 0% human serum albumin): −3.05% | GIP receptor % Binding avg at CMax, 2% HSA (GIP receptor [5]; 2% human serum albumin): 10.07%
